Laboratory results reported in the supplement of paper PMC11821682.

Tests used:
Danio rerio embryo [1] = assay: LEL embryonic photomotor response 24 hpf
Description: (§1)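 ZBEscreen: dechorionated Tropical 5D zebrafish embryos were exposed from 4 hpf in 96-well plates (1% DMSO, 28 °C). All compounds were first tested at 100 µM; hits were retested at 0.005-100 µM. Morphology and mortality were scored at 120 hpf and fitted as BMC10 (3-parameter log-logistic, extra risk). The embryonic photomotor response at 24 hpf and the larval photomotor response at 120 hpf are given as lowest effect levels (K-S test, p<0.01). NA = not significant up to 100 µM; NT = not tested.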

HL-60 = assay: Cell Health Index (toxicity pseudo-probability over dose series) (index 0-1); higher = more cytotoxic / cell stress;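 note: HL-60 cells exposed 4 h at 37 °C to ten threefold dilutions spanning 5 nM to 100 µM, multiparametric flow cytometry features scored by machine-learning classification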
Danio rerio embryo [2] = assay: BMC10 any morphological effect or mortality at 120 hpf; higher = less toxic
Danio rerio embryo [3] = assay: LEL larval photomotor response dark phase 120 hpf
Description: as §1

Danio rerio embryo [4] = assay: BMC10 mortality 24-120 hpf; higher = less toxic
Description: as §1

`CN1CC[C@H](c2c(O)cc(O)c3c(=O)cc(-c4ccccc4Cl)oc23)[C@H](O)C1.Cl` [Flavopiridol] was tested, and the “LEL embryonic photomotor response 24 hpf” value (Danio rerio embryo [1]) was 3.7 µM, the “Cell Health Index” value (HL-60) was 0.49 and the “BMC10 any morphological effect or mortality” value (Danio rerio embryo [2]) was 1.2 µM. The “LEL larval photomotor response dark phase 120 hpf” value (Danio rerio embryo [3]) was greater than 100 µM and the “BMC10 mortality 24-120 hpf” value (Danio rerio embryo [4]) was 1.71 µM.
`CC(C)c1cccc(=O)c(O)c1` [Hinokitiol] was tested, and the “LEL embryonic photomotor response 24 hpf” value (Danio rerio embryo [1]) was 33.3 µM, the “Cell Health Index” value (HL-60) was 0.335 and the “BMC10 any morphological effect or mortality” value (Danio rerio embryo [2]) was 3.83 µM. The “LEL larval photomotor response dark phase 120 hpf” value (Danio rerio embryo [3]) was greater than 100 µM and the “BMC10 mortality 24-120 hpf” value (Danio rerio embryo [4]) was 10.1 µM.
With `O=C(NCCO)c1cccc(-c2cc(Nc3ccc(OC(F)(F)F)cc3)ncn2)c1` [GNF-5] the “LEL embryonic photomotor response 24 hpf” value (Danio rerio embryo [1]) was greater than 100 µM, the “Cell Health Index” value (HL-60) was 0.81 and the “BMC10 any morphological effect or mortality” value (Danio rerio embryo [2]) was 28.6 µM. For the same compound, the “LEL larval photomotor response dark phase 120 hpf” value (Danio rerio embryo [3]) was 33.3 µM and the “BMC10 mortality 24-120 hpf” value (Danio rerio embryo [4]) was 36.2 µM.
With `COc1ccc2nc3cc(Cl)ccc3c(Nc3cc(CN4CCCC4)c(O)c(CN4CCCC4)c3)c2n1.O=P(O)(O)O.O=P(O)(O)O.O=P(O)(O)O.O=P(O)(O)O` [Pyronaridine] the “LEL embryonic photomotor response 24 hpf” value (Danio rerio embryo [1]) was 3.7 µM, the “Cell Health Index” value (HL-60) was 0.929 and the “BMC10 any morphological effect or mortality” value (Danio rerio embryo [2]) was 1.18 µM. The “LEL larval photomotor response dark phase 120 hpf” value (Danio rerio embryo [3]) was greater than 100 µM and the “BMC10 mortality 24-120 hpf” value (Danio rerio embryo [4]) was 3.65 µM.
In the case of `COC(=O)C[C@](O)(CCC(C)(C)O)C(=O)O[C@@H]1C(OC)=C[C@]23CCCN2CCc2cc4c(cc2[C@H]13)OCO4` [Harringtonine], the “LEL embryonic photomotor response 24 hpf” value (Danio rerio embryo [1]) is reported as 33.3 µM, the “Cell Health Index” value (HL-60) is reported as 0.376 and the “BMC10 any morphological effect or mortality” value (Danio rerio embryo [2]) is reported as 10.8 µM. The “LEL larval photomotor response dark phase 120 hpf” value (Danio rerio embryo [3]) was greater than 100 µM and the “BMC10 mortality 24-120 hpf” value (Danio rerio embryo [4]) was 26.6 µM.
With `CCC(C)n1ncn(-c2ccc(N3CCN(c4ccc(OC[C@H]5CO[C@](Cn6cncn6)(c6ccc(Cl)cc6Cl)O5)cc4)CC3)cc2)c1=O` (stereo not given in full) [Itraconazole] the “LEL embryonic photomotor response 24 hpf” value (Danio rerio embryo [1]) was 3.7 µM, the “Cell Health Index” value (HL-60) was 0.382 and the “BMC10 any morphological effect or mortality” value (Danio rerio embryo [2]) was 0.113 µM. The “LEL larval photomotor response dark phase 120 hpf” value (Danio rerio embryo [3]) was 0.41 µM and the “BMC10 mortality 24-120 hpf” value (Danio rerio embryo [4]) was 0.276 µM.
`CC[C@H](C)[C@H]1O[C@]2(CC[C@@H]1C)C[C@@H]1C[C@@H](C/C=C(\C)[C@@H](O[C@H]3C[C@H](OC)[C@@H](O[C@H]4C[C@H](OC)[C@@H](O)[C@H](C)O4)[C@H](C)O3)[C@@H](C)/C=C/C=C3\CO[C@@H]4[C@H](O)C(C)=C[C@@H](C(=O)O1)[C@]34O)O2` [Ivermectin B1a] was tested, and the “LEL embryonic photomotor response 24 hpf” value (Danio rerio embryo [1]) was 1.23 µM, the “Cell Health Index” value (HL-60) was 0.687 and the “BMC10 any morphological effect or mortality” value (Danio rerio embryo [2]) was 0.156 µM. The “LEL larval photomotor response dark phase 120 hpf” value (Danio rerio embryo [3]) was 0.41 µM and the “BMC10 mortality 24-120 hpf” value (Danio rerio embryo [4]) was 4.04 µM.
For `C[C@]12CC[C@H](O)C[C@H]1CC[C@@H]1[C@@H]2CC[C@]2(C)[C@@H](c3ccc(=O)oc3)C[C@H]3O[C@]132` [Bufogenin], the “LEL embryonic photomotor response 24 hpf” value (Danio rerio embryo [1]) was 11.1 µM, the “Cell Health Index” value (HL-60) was 0.504 and the “BMC10 any morphological effect or mortality” value (Danio rerio embryo [2]) was 2.23 µM. The “LEL larval photomotor response dark phase 120 hpf” value (Danio rerio embryo [3]) was greater than 100 µM and the “BMC10 mortality 24-120 hpf” value (Danio rerio embryo [4]) was 1.41 µM.
For `Fc1cc(F)c2c(c1)C1C=CCC1C(c1cccnc1)N2` (stereo not given) [Golgicide A], the “LEL embryonic photomotor response 24 hpf” value (Danio rerio embryo [1]) was 3.7 µM, the “Cell Health Index” value (HL-60) was 0.317 and the “BMC10 any morphological effect or mortality” value (Danio rerio embryo [2]) was 1.37 µM. The “LEL larval photomotor response dark phase 120 hpf” value (Danio rerio embryo [3]) was greater than 100 µM and the “BMC10 mortality 24-120 hpf” value (Danio rerio embryo [4]) was 2.32 µM.
`S=C(N(C1=CC=CC=C1)C(/C2=C\C3=CC=C(C4=CC=CC=C4[N+]([O-])=O)O3)=O)N(C5=CC=CC=C5)C2=O` [UCF 101] was tested, and the “LEL embryonic photomotor response 24 hpf” value (Danio rerio embryo [1]) was greater than 100 µM, the “Cell Health Index” value (HL-60) was 0.876 and the “BMC10 any morphological effect or mortality” value (Danio rerio embryo [2]) was 3.23 µM. The “LEL larval photomotor response dark phase 120 hpf” value (Danio rerio embryo [3]) was greater than 100 µM and the “BMC10 mortality 24-120 hpf” value (Danio rerio embryo [4]) was 4.93 µM.
For `C[C@H]1[C@@H](O)O[C@@H]2O[C@@]3(C)CC[C@H]4[C@H](C)CC[C@@H]1[C@@]24OO3` [Dihydroartemisinin], the “LEL embryonic photomotor response 24 hpf” value (Danio rerio embryo [1]) was greater than 100 µM, the “Cell Health Index” value (HL-60) was 0.215 and the “BMC10 any morphological effect or mortality” value (Danio rerio embryo [2]) was 2.99 µM. For the same compound, the “LEL larval photomotor response dark phase 120 hpf” value (Danio rerio embryo [3]) was 1.23 µM and the “BMC10 mortality 24-120 hpf” value (Danio rerio embryo [4]) was 2.11 µM.
For `N#CC(=C(/N)Sc1ccccc1N)/C(C#N)=C(\N)Sc1ccccc1N` [U0126], the “LEL embryonic photomotor response 24 hpf” value (Danio rerio embryo [1]) was 33.3 µM, the “Cell Health Index” value (HL-60) was 0.558 and the “BMC10 any morphological effect or mortality” value (Danio rerio embryo [2]) was 4.02 µM. The “LEL larval photomotor response dark phase 120 hpf” value (Danio rerio embryo [3]) was greater than 100 µM and the “BMC10 mortality 24-120 hpf” value (Danio rerio embryo [4]) was 11.5 µM.
With `COc1ccccc1NC(=O)c1ccccc1Sc1ccc([N+](=O)[O-])cc1` [RN-18] the “LEL embryonic photomotor response 24 hpf” value (Danio rerio embryo [1]) was 11.1 µM, the “Cell Health Index” value (HL-60) was 0.491 and the “BMC10 any morphological effect or mortality” value (Danio rerio embryo [2]) was 10 µM. The “LEL larval photomotor response dark phase 120 hpf” value (Danio rerio embryo [3]) was greater than 100 µM and the “BMC10 mortality 24-120 hpf” value (Danio rerio embryo [4]) was 11.8 µM.
`CC(=O)c1c(O)cc(O)c(C(C)=O)c1O` [2,4-Diacetylphloroglucinol] was tested, and the “LEL embryonic photomotor response 24 hpf” value (Danio rerio embryo [1]) was 3.7 µM, the “Cell Health Index” value (HL-60) was 0.669 and the “BMC10 any morphological effect or mortality” value (Danio rerio embryo [2]) was 1.45 µM. For the same compound, the “LEL larval photomotor response dark phase 120 hpf” value (Danio rerio embryo [3]) was greater than 100 µM and the “BMC10 mortality 24-120 hpf” value (Danio rerio embryo [4]) was 3.32 µM.
With `COc1cc2c(c(OC)c1OC)-c1c(cc(OC)c(OC)c1OC)C[C@H](C)[C@H](C)C2` [Schisandrin A] the “LEL embryonic photomotor response 24 hpf” value (Danio rerio embryo [1]) was 0.015 µM, the “Cell Health Index” value (HL-60) was 0.661 and the “BMC10 any morphological effect or mortality” value (Danio rerio embryo [2]) was 3.78 µM. The “LEL larval photomotor response dark phase 120 hpf” value (Danio rerio embryo [3]) was greater than 100 µM and the “BMC10 mortality 24-120 hpf” value (Danio rerio embryo [4]) was 3.4 µM.
For `CN1CCN(C(c2ccccc2)c2ccc(Cl)cc2)CC1.Cl` (stereo not given) [Chlorcyclizine], the “LEL embryonic photomotor response 24 hpf” value (Danio rerio embryo [1]) was 11.1 µM, the “Cell Health Index” value (HL-60) was 0.478 and the “BMC10 any morphological effect or mortality” value (Danio rerio embryo [2]) was 8.84 µM. The “LEL larval photomotor response dark phase 120 hpf” value (Danio rerio embryo [3]) was greater than 100 µM and the “BMC10 mortality 24-120 hpf” value (Danio rerio embryo [4]) was 15.9 µM.
